{"source": "paper PMC12386367", "about": "“Importin α3 Is Tolerant to Nuclear Localization Signal Chirality” (International Journal of Molecular Sciences, 2025)", "key": {"[1]": {"experiment": "Translational diffusion NMR (DOSY) of NLS peptides", "format": "physicochemical", "conditions": "~100 μM peptide, 50 mM deuterated Tris pH 7.2, 100% D2O, 10 °C", "description": "For the four peptides, we measured the experimental value of D for dioxane ranging from (1.2 ± 0.1) × 10^−5 to (1.05 ± 0.02) × 10^−5 cm^2 s^−1 in each solution containing the corresponding peptide; we assumed a hydrodynamic radius of 2.12 Å for dioxane (Table 1) under any condition. […] Furthermore, the values of D were similar for the D- and L-peptides, and the latter were already being described as disordered. Thus, we can conclude that the four D-peptides were monomeric and disordered, like the L-form counterparts, and, then, there was no difference in the hydrodynamic properties of the peptides by changing the enantiomeric nature of the residues.\nThe NMR spectra were acquired at 10 °C on a Bruker Avance III spectrometer (Bruker GmbH, Mannheim, Germany), equipped with a triple-resonance probe and z-pulse field gradients. All NMR experiments with D-NLS peptides were carried out in 50 mM deuterated Tris buffer (not corrected for isotope effects), pH 7.2. Spectra were calibrated with TSP, by considering pH-dependent changes in its chemical shifts; probe temperature was calibrated with pure methanol.\nThe typical D-NLS peptide concentrations in DOSY experiments were ~100 μM, and 128 scans were acquired, in which the gradient strength was varied linearly in sixteen steps, between 2 and 95% of the total power of the gradient coil. Measurements of the translational self-diffusion coefficient, D, were performed with the pulsed-gradient spin-echo sequence in the presence of 100% D2O. Details on the experimental conditions and fitting of the resulting curves have been described elsewhere. Gradient strength was calibrated by using the value of D for the residual proton water signal in a sample containing 100% D2O, in a 5 mm tube [23]. Gradient length was 2.5 ms; the time between the two pulse gradients in the sequence was 250 ms; and the recovery delay between the bipolar gradients was 100 μs. The signals from methyl groups between 0.8 and 1.0 ppm were used for peak integration, for all the D-NLS peptides. A final concentration of 1% of dioxane, which was assumed to have a hydrodynamic radius Rh of 2.12 Å [23], was added to the solution of each peptide."}, "Impα3 [2]": {"biological_target": "T1, Impα3 (Homo sapiens, UniProt O00629)", "T1 construct": "Human importin α3 isoform (residues 1–521); made in house", "T1 sequence (O00629 1-521)": "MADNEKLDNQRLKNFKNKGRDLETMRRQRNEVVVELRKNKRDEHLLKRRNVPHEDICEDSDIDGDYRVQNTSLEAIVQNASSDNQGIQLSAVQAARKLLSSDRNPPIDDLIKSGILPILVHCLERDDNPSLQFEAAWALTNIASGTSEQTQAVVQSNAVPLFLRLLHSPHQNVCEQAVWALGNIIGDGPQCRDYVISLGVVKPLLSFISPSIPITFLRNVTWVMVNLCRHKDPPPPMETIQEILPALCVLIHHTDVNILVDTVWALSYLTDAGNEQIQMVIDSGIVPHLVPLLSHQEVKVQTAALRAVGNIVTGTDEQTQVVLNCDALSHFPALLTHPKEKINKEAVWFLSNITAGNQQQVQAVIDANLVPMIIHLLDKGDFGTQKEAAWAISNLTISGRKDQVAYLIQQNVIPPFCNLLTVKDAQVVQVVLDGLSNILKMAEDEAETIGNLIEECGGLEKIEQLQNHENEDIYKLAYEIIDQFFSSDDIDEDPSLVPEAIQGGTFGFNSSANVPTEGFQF", "experiment": "Biolayer interferometry (BLI) binding to Impα3", "conditions": "peptide 1–10 μM, 25 °C", "procedure": "(§1) The association (kon) and dissociation (koff) rate constants of the binding of D-NLS peptides to either Impα3 or ∆Impα3 were determined by using a BLItz system (ForteBio, Pall, Barcelona, Spain). The buffer used in the experiments was that recommended by the manufacturer. […] The peptide concentrations were in a range from 1 to 10 μM during the association step. The general scheme of the protein association/dissociation reactions in the BLItz system for the D-NLS peptides was as follows: 30 s of initial baseline acquisition with the 10 × kinetics buffer (provided by the manufacturer); 120 s of loading either Impα3 and ∆Impα3 into the biosensor; 30 s of baseline acquisition with the 10 × kinetics buffer; 120 s of association of each peptide to the biosensor (which had been previously loaded with the importin species); and 120 s of monitoring of the dissociation of each peptide from the biosensor. All experiments were carried out at 25 °C.\n(§2) Fittings of the BLI sensorgrams was carried out by using KaleidaGraph, as previously described. The interferometry response during the association step, R(t) (measured in response units, RU), and the binding rate, dR(t)/dt, could be used to evaluate the kinetics of the formation of the complex between Impα3/∆Impα3 and each D-NLS, according to:(2) dR/dt=konD-NLSRmax−Rt−koffR(t) where Rmax is proportional to the total concentration of biosensor-bound importin species; and [D-NLS] represents the concentration of the corresponding D-NLS peptide.\n(§3) In Equation (2), R(t) is given by:(3) Rt= Req−Reqe^(−kobs t−t0) where Req is the steady-state (or equilibrium) response obtained at infinite time, when dR(t)/dt = 0, and t0 = 180 s is the time at which the association step between biosensor-immobilized Impα3/∆Impα3 and D-NLS in the solution started. We fitted the experimentally obtained R(t) under any condition as:(4) Rt= Req−Reqe^−kobs t−t0−R’eq(t−t0) where R^′eq was included to consider the lineal drift observed at longer times.\n(§4) The dissociation process was always fitted to a single exponential, with R(t) given by:(6) Rt=R1 e^(−kofft−t0)−R^″eq(t−t0) where t0 = 300 is the time at which the dissociation of the D-NLS from the biosensor-bound Impα3/∆Impα3 started in our experimental set-up, R1 is the response level when dissociation starts, and the parameter R^″eq considers the linear drift observed at longer times.\n(§5) The experiments were repeated at least twice for each peptide with each importin species."}, "∆Impα3 [3]": {"biological_target": "T2, ∆Impα3 (Homo sapiens, UniProt O00629)", "T2 construct": "IBB-depleted species of Impα3 (residues 64–521 of the intact protein); made in house", "T2 sequence (O00629 64-521)": "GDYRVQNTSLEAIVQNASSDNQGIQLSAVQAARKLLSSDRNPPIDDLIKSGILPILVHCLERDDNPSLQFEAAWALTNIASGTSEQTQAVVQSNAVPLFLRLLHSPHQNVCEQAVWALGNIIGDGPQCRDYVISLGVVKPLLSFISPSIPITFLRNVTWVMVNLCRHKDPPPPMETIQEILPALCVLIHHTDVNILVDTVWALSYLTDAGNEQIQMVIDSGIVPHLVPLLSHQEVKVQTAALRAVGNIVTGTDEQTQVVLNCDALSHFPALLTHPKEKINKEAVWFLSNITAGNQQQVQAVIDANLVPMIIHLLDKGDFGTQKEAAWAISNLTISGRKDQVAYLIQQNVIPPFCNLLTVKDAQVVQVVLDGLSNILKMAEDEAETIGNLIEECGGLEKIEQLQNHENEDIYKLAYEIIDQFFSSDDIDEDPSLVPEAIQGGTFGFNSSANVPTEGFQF", "experiment": "Biolayer interferometry (BLI) binding to ∆Impα3", "conditions": "BLItz, ∆Impα3 immobilized via His-tag (0.25 μM), peptide 1–10 μM, 10 × kinetics buffer, 25 °C, error from pseudo-first order fit, at least two repeats, read-out: kon", "procedure": "as §1, §2, §3, §4, §5"}, "Impα3 [4]": {"biological_target": "T1, Impα3", "experiment": "Isothermal titration calorimetry (ITC) with Impα3", "format": "binding", "conditions": "Impα3, 50 mM Tris pH 8.0, 25 °C", "procedure": "(§6) Calorimetric titrations for testing the interaction of D-NLS peptides with either Impα3 or ΔImpα3 were carried out in an VP-ITC instrument (Microcal, Northhamptom, MA, USA). The importin species were loaded into the cell calorimeter and the corresponding D-NLS peptide in the syringe in Tris buffer 50 mM, pH 8.0. All experiments were carried out at 25 °C.\n(§7) These twenty-nine ITC experiments involved sequential injections of microliter amounts (10 µL) of a stock solution of D-NLS peptide (in a concentration range of 150–200 µM) into the calorimetric cell (1.4 mL); the cell initially contained protein solution (15 µM for either Impα3 or ΔImpα3 in protomer units). To correct for the heat evolved due to the dilution effect for adding the ligand (peptide) solution to the calorimetric cell, an independent experiment was performed, in which the same peptide solution was injected into the calorimetric cell loaded with buffer. After correction for the dilution heat, the isotherm was fitted to a binding model that assumed the existence of a single set of binding sites, by using the software v1.41 provided by the manufacturer."}, "∆Impα3 [5]": {"biological_target": "T2, ∆Impα3", "experiment": "Isothermal titration calorimetry (ITC) with ∆Impα3", "format": "binding", "conditions": "∆Impα3, 50 mM Tris pH 8.0, 25 °C", "procedure": "as §6, §7"}, "[6]": {"conditions": "sequence synthesized in reverse order; ref [38]; cited from earlier work", "description": "A few additional conclusions can be drawn from our results, in the context of their relevance for understanding the importance of importin in the regulation of the nucleocytoplasmic transport of cargo proteins. Although we cannot rule out that the intrinsic high flexibility of Impα3 could be involved in its lack of selectivity towards different stereoisomers, we believe the following: (i) the intrinsic disorder of the isolated NLS peptides (derived from the cargos), as shown by NMR (Figure 1 and Figure 2), and (ii) the fact that the peptides remained disordered upon binding to the importin spe ..."}, "[7]": {"conditions": "L-NLS counterparts, literature values, ref [5],[6],[7], cited from earlier work", "description": "Table 1 Hydrodynamic properties of the D-NLS peptides ^a. | column: D (cm^2 s^−1) × 10^6 (Rh, Å) (L-NLS) ^d"}, "Impα3 [8]": {"biological_target": "T1, Impα3", "conditions": "literature value for L-NLS counterpart, ref [5],[6],[7], read-out: Kd (ITC) (L-NLS Peptide); cited from earlier work", "description": "(§8) Table 2 Kinetic and thermodynamic parameters of the binding reaction of D-NLS peptides to Impα3 ^a. | column: Kd (μM) (ITC/Fluorescence) (L-NLS Peptide) ^c || We also used ITC to determine the thermodynamic binding parameters in the association of each of the peptides to both importin species (Figure 4). […] For D-NLS-NUPR1L, the values of enthalpy, ∆H, were −2.5 ± 0.2 and −4.5 ± 0.7 kcal mol^−1 for the binding to Impα3 and ∆Impα3, respectively. On the other hand, the values previously ..."}, "∆Impα3 [9]": {"biological_target": "T2, ∆Impα3", "conditions": "literature value for L-NLS counterpart, ref [5],[6],[7], read-out: Kd (ITC) (L-NLS Peptide); cited from earlier work", "description": "as §8, with “Table 3 Kinetic and” for “Table 2 Kinetic and”, “peptides to ∆Impα3 ^a. |” for “peptides to Impα3 ^a. |”"}}, "note": "Non-standard residues stand in square brackets, D forms with d. Residues, ends and D or L forms follow the SMILES beside them.", "data": [{"molecule": "CC(=O)N[C@H](CCCNC(=N)N)C(=O)N[C@@H](C(=O)N[C@H](CCCNC(=N)N)C(=O)N[C@H](CCCNC(=N)N)C(=O)N[C@H](CCC(=O)O)C(=O)N[C@H](CCC(N)=O)C(=O)N[C@H](C)C(=O)N[C@H](CC(C)C)C(=O)N[C@H](CCCNC(=N)N)C(=O)N[C@@H](C(=O)N[C@H](CC(N)=O)C(=O)N[C@H](Cc1c[nH]c2ccccc12)C(=O)N1CCC[C@@H]1C(=O)N[C@H](C)C(=O)N1CCC[C@@H]1C(=O)NCC(=O)NCC(=O)N[C@H](Cc1c[nH]cn1)C(=O)N[C@H](CCC(=O)O)C(=O)N[C@H](CCCNC(=N)N)C(=O)N[C@H](CCCCN)C(=O)N[C@@H](C(=O)N[C@H](C)C(=O)N[C@H](CCC(N)=O)C(N)=O)C(C)C)[C@H](C)O)[C@H](C)O", "note": "[D-NLS-NUPR1L] (Ac-[dR][dT][dR][dR][dE][dQ][dA][dL][dR][dT][dN][dW][dP][dA][dP]GG[dH][dE][dR][dK][dV][dA][dQ]-NH2)", "values": [{"measurement": "Diffusion coefficient D", "setting": "[1]", "result": "2.0 ± 0.3", "unit": "cm^2 s^−1 × 10^6"}, {"measurement": "kon", "setting": "Impα3 [2]; BLItz, Impα3 immobilized via His-tag (0.25 μM), 10 × kinetics buffer, error from pseudo-first order fit, at least two repeats, read-out: kon", "result": "68000 ± 7000", "unit": "M⁻¹ s⁻¹"}, {"measurement": "koff", "setting": "Impα3 [2]; Impα3 immobilized via His-tag, error from pseudo-first order fit (Equation 5)", "result": "0.069 ± 0.04", "unit": "s⁻¹"}, {"measurement": "kon", "setting": "∆Impα3 [3]", "result": "51200 ± 700", "unit": "M⁻¹ s⁻¹"}, {"measurement": "enthalpy ∆H", "setting": "Impα3 [4]", "result": "-2.5 ± 0.2", "unit": "kcal/mol"}, {"measurement": "enthalpy ∆H", "setting": "∆Impα3 [5]", "result": "-4.5 ± 0.7", "unit": "kcal/mol"}]}, {"molecule": "DLKVRKAA", "values": [{"measurement": "Binding, dependence on stereochemistry", "setting": "[6]", "result": "binding insensitive to L-/D-stereochemistry has been observed"}]}, {"molecule": "L-NLS-NUPR1: wild-type isolated NLS region of NUPR1, comprising residues 54 to 74 (TNRPSPGGHERKLVTKLQNSE; UniProt O60356 54-74, looked up, fragment)", "values": [{"measurement": "Hydrodynamic radius Rh (L-NLS)", "setting": "[7]; estimated from Rh of dioxane", "result": "11 ± 1", "unit": "Å"}, {"measurement": "Diffusion coefficient D (L-NLS)", "setting": "[7]", "result": "1.85 ± 0.04 10^-6 cm^2 s^-1"}, {"measurement": "Kd", "setting": "Impα3 [8]", "result": 1.7, "unit": "µM"}, {"measurement": "Kd", "setting": "∆Impα3 [9]", "result": 0.95, "unit": "µM"}]}]}
